Measurements reported in patent US20210079037A1, “LIGHT-SWITCHABLE POLYPEPTIDE AND USES THEREOF” (TECHNISCHE UNIVERSITÄT MÜNCHEN, priority 2017, published 2021).

Key:
[1] = Solubility in water and culture medium; format: physicochemical; conditions: physiological pH
[2] = prior art amino acid; cited from earlier work
[3] = Light-induced isomerization of Caf, analysis by HPLC; format: physicochemical; conditions: for isomer composition after irradiation with green light (HPLC): green LED light, λ=520 nm, after UV irradiation; for isomer composition before irradiation (HPLC): ground state, prior to irradiation
Description: 500 μl of a 60 μM solution of Caf (7) in water was placed in a 1.5 ml HPLC vial (Screw neck vial N9, amber glass, 11.6×32 mm; Macherey Nagel, Duren, Germany) and irradiated with a UV LED (λ=353 nm, NS355L-5RLO; Nitride Semiconductors, Tokushima, Japan) for 30 min directly from the top. Before and after irradiation, a 20 μl sample of the solution was withdrawn and analyzed by HPLC on a Purospher RP-8e 250×3 mm column (Merck), applying a concentration gradient of 10-12% acetonitrile (ACN) in 50 mM NH4OAc buffer pH 8 over 10 min (flow rate 0.6 ml/min). Another sample was analyzed in the same manner after irradiation with green LED light (λ=520 nm, LL-504PGC2E-G5-2CC, Lucky Light Electronics, Hongkong, China). […] The chromatograms reveal that the cis and trans isomers of (7) can be separated by HPLC (cis-(7) tR=3.6 min, trans-(7) tR=4.6 min). […] However, it should be taken into account that also during HPLC analysis reisomerization of cis-(7) to trans-(7) takes place, so the proportion of cis-(7) after irradiation with UV light might actually be higher than indicated by HPLC chromatograms. Thus, if the light-switchable polypeptide of the present invention is applied for an affinity chromatography procedure, and the trans configuration corresponds to the high affinity state whereas the cis configuration corresponds to the low affinity conformation, then the highest degree of binding and the highest degree of elution of the molecule of interest takes place at 430 nm and 330 nm, respectively. However, conventional light sources usually provide light having wavelengths that are around 530 nm (visible light) and 365 nm (UV light). Therefore, also light providing these wavelengths (i.e. around 530 nm and/or around 365 nm) may be used in accordance with the present invention.

[4] = Light-induced isomerization of Caf, analysis by UV-VIS spectroscopy; format: physicochemical; conditions: 30 μM aqueous solution; alternating UV and green LED irradiation over 3 cycles
Source text: The electronic transition π→π* is usually in the near UV region around 340 nm (Sension et al. 1993 J. Chem. Phys. 98: 6291-6315) whereas the electronic transition n→π* is usually located in the visible (VIS) region around 420 nm and is due to the presence of unshared electron pairs of the nitrogen atoms (Naegele et al. 1997 Chem. Phys. Lett. 272: 489-495). To examine whether the synthesized non-natural amino acid Caf (7) can respond to photoswitching induced by UV light, the compound was subjected to alternating irradiation cycles. In a typical experiment, 0.5 ml of a 30 μM aqueous solution was placed in a quartz cuvette with 1 cm optical pathlength. Then the sample was irradiated for 30 min from the top using a UV LED (NS355L-5RLO; Nitride Semiconductors, Tokushima, Japan) with 353 nm or a green LED (LL-504PGC2E-G5-2CC; Lucky Light Electronics, Hongkong, China) with 520 nm emitting wavelength. The change in intensity of the π-π* band at around 340 nm corresponding to the trans/cis isomerization (FIG. 4A) was monitored with a computer controlled photometer (Ultrospec 2100 pro, Amersham Biosciences).

N[C@@H](Cc1ccc(N=Nc2cccc(C(=O)O)c2)cc1)C(=O)O [3′-carboxyphenylazophenylalanine, 4-[(3-Carboxyphenyl)azo]-L-phenylalanine]
solubility in water and LB culture medium [1]: good solubility

N[C@@H](Cc1ccc(N=Nc2ccccc2)cc1)C(=O)O [AzoPhe]
solubility in water as well as culture media [2]: extremely poor solubility

N[C@@H](Cc1ccc(N=Nc2ccc(C(=O)O)cc2)cc1)C(=O)O [Caf, 4-[(4-carboxyphenyl)azo]-L-phenylalanine]
isomer composition after irradiation with UV light (HPLC) ([3]; after irradiation with UV light): mostly cis isomer
proportion of cis-(7) ([3]; after irradiation with UV light for 30 min, 60 μM in water, HPLC at 286 nm): up to 86%
isomer composition after irradiation with green light (HPLC) [3]: recovering the ground state
isomer composition after irradiation with green light (HPLC) ([3]; listed as 7): mostly trans isomer
isomer composition before irradiation (HPLC) [3]: only energetically favored trans-(7)
isomer composition before irradiation (HPLC) ([3]; listed as 7): essentially pure trans isomer
solubility in water and LB culture medium [1]: good solubility
photoswitching between trans and cis configuration (absorbance at about 340 nm) [4]: reversible photoswitching
